Key:
[1] = test system: H3K27 methylation in G401 cell; experiment: ELISA (H3K27 methylation) assay; assay type: cell-based; details: Homo sapiens, G-401, ELISA Qualified assay, 48 h, read-out: (c) IC50
Procedure: ELISA (H3K27 Methylation) Assay
Representative compounds of the present invention were serially and separately diluted 3-fold in DMSO to obtain a total of eight or twelve concentrations. Then the compounds were added to G401 cell cultured in 384-well plate at 1:500 dilution to obtain the highest concentration of 20 μM. The cells were further cultured for 48 h before ELISA procedure.
ELISA protocol: Cell lysates were transferred to the wells of a 384-well plate and the final volume was adjusted to 50 μL per well with PBS. The plate was sealed, centrifuged at 2,000 rpm for 2 min and incubated at 4° C. for about 16 h. The plate was washed with TBST buffer (1×TBS (10×TBS: 24.2 g Tris (Sigma, T6066), 80 g NaCl (Sigma, S3014) to 1 L of water and adjust pH to 7.6 with HCl) with 0.1% Tween-20). Blocking buffer (TBST, 5% BSA; 50 μL per well) was added and the plate was incubated for 1 h at rt. The blocking buffer was removed and primary antibody was added (30 μL per well). […] The primary antibody was incubated in the plate at rt for 1 h. The wells were washed with TBST and incubated with secondary antibody for 1 h at rt. […] After 1 h of incubation at rt, the wells were washed with TBST. […] The signal was read using a PerkinElmer Envision Reader. The H3K27 methylation readouts were normalized using H3 signal and then percentage inhibition was calculated against the samples treated with DMSO. The data were then fit to a dose response curve using the program Helios to get the IC50 values of the test compound.

[2] = molecular target: EED (1-441)-His protein (Homo sapiens (Human), UniProt O75530); experiment: EED-H3K27Me3 peptide competition binding assay by AlphaScreen; details: EED Alphascreen binding Qualified assay
Chain of EED (1-441)-His protein (O75530 whole entry): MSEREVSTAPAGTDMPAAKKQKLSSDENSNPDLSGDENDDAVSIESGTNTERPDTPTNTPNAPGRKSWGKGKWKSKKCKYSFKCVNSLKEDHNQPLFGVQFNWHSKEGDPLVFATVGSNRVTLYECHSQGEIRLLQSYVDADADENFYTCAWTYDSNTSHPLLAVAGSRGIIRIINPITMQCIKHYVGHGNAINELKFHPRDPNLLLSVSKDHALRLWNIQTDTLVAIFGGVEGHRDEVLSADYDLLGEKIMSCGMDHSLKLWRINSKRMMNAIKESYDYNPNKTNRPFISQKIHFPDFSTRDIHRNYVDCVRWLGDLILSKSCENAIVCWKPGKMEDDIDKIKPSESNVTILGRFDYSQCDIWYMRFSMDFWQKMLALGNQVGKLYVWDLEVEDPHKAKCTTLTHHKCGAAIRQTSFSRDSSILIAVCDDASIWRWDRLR
Procedure: Then 4 μL of detection beads mix was added to the plate and incubate in the dark at the rt for 1 h. The final concentration of donor and acceptor beads was 10 μg/mL for each. […] The data were then fit to a dose response equation using the program Helios (Novartis) to get the IC50 values. […] Sebaugh, J. […] Each compound was counter screened to determine if it interfered with the AlphaScreen beads. […] The plates were then incubated for 1 h at rt in dark before being read on EnVison.

[3] = molecular target: wild type PRC2 (wtPRC2) complex (Homo sapiens (Human), UniProt O75530); experiment: EED LC-MS assay; assay type: biochemical; details: EED LC-MS Qualified assay; read-out: (b) IC50
Chain of wild type PRC2 (wtPRC2) complex (O75530 whole entry): as above
Chain of wild type PRC2 (wtPRC2) complex (Q15910 whole entry partner): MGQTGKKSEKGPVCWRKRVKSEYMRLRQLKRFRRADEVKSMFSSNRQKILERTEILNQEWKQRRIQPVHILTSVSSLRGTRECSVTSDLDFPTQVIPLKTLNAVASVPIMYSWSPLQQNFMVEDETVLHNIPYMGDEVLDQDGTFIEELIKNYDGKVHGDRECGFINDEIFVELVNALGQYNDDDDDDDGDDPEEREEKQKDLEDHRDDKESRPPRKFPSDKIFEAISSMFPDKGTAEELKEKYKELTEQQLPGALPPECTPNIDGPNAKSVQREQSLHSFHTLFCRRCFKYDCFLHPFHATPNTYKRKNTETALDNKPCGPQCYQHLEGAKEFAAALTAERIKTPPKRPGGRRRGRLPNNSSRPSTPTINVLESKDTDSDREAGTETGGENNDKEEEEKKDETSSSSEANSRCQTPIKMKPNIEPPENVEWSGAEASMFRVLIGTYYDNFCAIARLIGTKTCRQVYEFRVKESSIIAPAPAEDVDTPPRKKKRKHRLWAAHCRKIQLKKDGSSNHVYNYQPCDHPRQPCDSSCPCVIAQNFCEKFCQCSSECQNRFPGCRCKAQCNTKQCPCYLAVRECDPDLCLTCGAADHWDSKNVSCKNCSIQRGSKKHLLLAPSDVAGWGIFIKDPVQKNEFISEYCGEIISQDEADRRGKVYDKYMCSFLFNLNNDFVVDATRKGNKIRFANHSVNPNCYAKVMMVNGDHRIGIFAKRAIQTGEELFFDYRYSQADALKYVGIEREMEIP
Chain of wild type PRC2 (wtPRC2) complex (Q15022 whole entry partner): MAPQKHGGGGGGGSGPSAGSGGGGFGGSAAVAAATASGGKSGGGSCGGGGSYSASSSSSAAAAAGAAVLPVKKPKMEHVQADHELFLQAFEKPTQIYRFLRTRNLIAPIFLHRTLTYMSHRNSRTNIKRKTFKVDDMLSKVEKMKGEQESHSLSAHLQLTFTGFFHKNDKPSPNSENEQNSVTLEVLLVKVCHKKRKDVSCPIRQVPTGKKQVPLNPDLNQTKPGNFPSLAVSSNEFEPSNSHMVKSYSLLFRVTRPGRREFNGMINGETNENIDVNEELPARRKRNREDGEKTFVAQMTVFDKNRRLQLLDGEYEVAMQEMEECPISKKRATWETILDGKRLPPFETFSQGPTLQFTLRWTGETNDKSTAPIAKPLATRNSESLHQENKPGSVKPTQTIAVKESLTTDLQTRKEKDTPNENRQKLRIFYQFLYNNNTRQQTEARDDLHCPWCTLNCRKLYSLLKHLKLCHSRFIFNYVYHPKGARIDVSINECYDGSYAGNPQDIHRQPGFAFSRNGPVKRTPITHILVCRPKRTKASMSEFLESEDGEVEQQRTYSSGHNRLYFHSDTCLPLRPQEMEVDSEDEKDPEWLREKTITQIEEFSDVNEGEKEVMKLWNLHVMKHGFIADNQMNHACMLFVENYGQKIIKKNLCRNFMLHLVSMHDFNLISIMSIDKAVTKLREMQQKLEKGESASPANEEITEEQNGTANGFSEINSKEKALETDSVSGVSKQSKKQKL
Procedure: EED LC-MS Assay Representative compounds of the present invention were serially and separately diluted 3-fold in DMSO to obtain a total of eight or twelve concentrations. […] A 6 μL solution of 3 μM of the peptide substrate H3K27Me0 (histone H3[21-44]-biotin) in reaction buffer was added to initiate each reaction. […] The data were then fit to a dose response equation using the program Helios to get the IC50 values of the test compound.

| IC50 [1] [nM] | IC50 [2] [nM] | IC50 [3] [nM] | Structure (SMILES) |
| --- | --- | --- | --- |
| 24.8 | 7.2 | 13.2 | Cc1ncc(-c2cnc(NCc3c(F)ccc4c3CCO4)n3cncc23)c(C)n1 [Example 1, 8-(2,4-Dimethylpyrimidin-5-yl)-N-((5-fluoro-2,3-dihydrobenzofuran-4-yl)methyl)imidazo[1,5-c]pyrimidin-5-amine] |
| 12.6 | 12.3 | 26.7 | CNC(=O)c1ncn2c(NCc3c(F)ccc4c3CCO4)ncc(-c3cccnc3C)c12 [Example 2, 5-(((5-Fluoro-2,3-dihydrobenzofuran-4-yl)methyl)amino)-N-methyl-8-(2-methylpyridin-3-yl)imidazo[1,5-c]pyrimidine-1-carboxamide] |
| 13.2 | 6.8 | 13.7 | Cc1ncc(-c2cnc(NCc3c(F)ccc4c3CCO4)n3cnc(C#N)c23)c(C)n1 [Example 3, 8-(2,4-dimethylpyrimidin-5-yl)-5-(((5-fluoro-2,3-dihydrobenzofuran-4-yl)methyl)amino)imidazo[1,5-c]pyrimidine-1-carbonitrile] |
| 30.4 | 11.6 | 18.6 | Cc1ncc(-c2cnc(NCc3c(F)ccc4c3CCO4)n3cnc(CO)c23)c(C)n1 [Example 8, (8-(2,4-Dimethylpyrimidin-5-yl)-5-(((5-fluoro-2,3-dihydrobenzofuran-4-yl)methyl)amino)imidazo[1,5-c]pyrimidin-1-yl)methanol] |
| 10.9 | 10.4 | 11 | Cc1ncc(-c2cnc(NCc3c(F)ccc4c3CCO4)n3cnc(Cl)c23)c(C)n1 [Example 9, 1-chloro-8-(2,4-dimethylpyrimidin-5-yl)-N-((5-fluoro-2,3-dihydrobenzofuran-4-yl)methyl)imidazo[1,5-c]pyrimidin-5-amine] |
| 6.9 | 12.6 | 17.1 | Cc1ncc(-c2cnc(NCc3c(F)ccc4c3CCO4)n3cnc(-c4ncco4)c23)c(C)n1 [Example 11, 8-(2,4-dimethylpyrimidin-5-yl)-N-((5-fluoro-2,3-dihydrobenzofuran-4-yl)methyl)-1-(oxazol-2-yl)imidazo[1,5-c]pyrimidin-5-amine] |
| 48.9 | 5.4 | 6.8 | C#Cc1ncn2c(NCc3c(F)ccc4c3CCO4)ncc(-c3cccnc3C)c12 [Example 12, 1-Ethynyl-N-((5-fluoro-2,3-dihydrobenzofuran-4-yl)methyl)-8-(2-methylpyridin-3-yl)imidazo[1,5-c]pyrimidin-5-amine] |
| 4.9 | 10.4 | 23.4 | Cc1ncc(-c2cnc(NCc3c(F)ccc4c3CCO4)n3cnc([S+]([O-])c4ccccc4)c23)c(C)n1 (stereo not shown) [Example 14, 8-(2,4-Dimethylpyrimidin-5-yl)-N-((5-fluoro-2,3-dihydrobenzofuran-4-yl)methyl)-1-(phenylsulfinyl)imidazo[1,5-c]pyrimidin-5-amine] |
| 7.8 | 15.2 | 29.8 | Cc1ncc(-c2cnc(NCc3c(F)ccc4c3CCO4)n3cnc(S(=O)(=O)c4ccccc4)c23)c(C)n1 [Example 15, 8-(2,4-dimethylpyrimidin-5-yl)-N-((5-fluoro-2,3-dihydrobenzofuran-4-yl)methyl)-1-(phenylsulfonyl)imidazo[1,5-c]pyrimidin-5-amine] |
| 7.6 | 9.1 | 17.5 | CC(=O)c1ncn2c(NCc3c(F)ccc4c3CCO4)ncc(-c3cnc(C)nc3C)c12 [Example 16, 1-(8-(2,4-Dimethylpyrimidin-5-yl)-5-(((5-fluoro-2,3-dihydrobenzofuran-4-yl)methyl)amino)-imidazo[1,5-c]pyrimidin-1-yl)ethan-1-one] |
| 2 | 5.5 |  | CCOC(=O)c1ncn2c(NCc3c(F)ccc4c3CCO4)ncc(-c3cccnc3C)c12 [Example 95, ethyl 5-(((5-fluoro-2,3-dihydrobenzofuran-4-yl)methyl)amino)-8-(2-methylpyridin-3-yl)imidazo[1,5-c]pyrimidine-1-carboxylate] |

Continued, molecule first:

| Structure (SMILES) | IC50 [1] [nM] | IC50 [2] [nM] | IC50 [3] [nM] |
| --- | --- | --- | --- |
| Cc1ncn2c(NCc3c(F)ccc4c3CCO4)ncc(-c3ccc(S(C)(=O)=O)cc3)c12 [Example 4, N-((5-fluoro-2,3-dihydrobenzofuran-4-yl)methyl)-1-methyl-8-(4-(methylsulfonyl)phenyl)imidazo[1,5-c]pyrimidin-5-amine] | 32.5 | 15.6 | 29.5 |
| Cc1cc(-c2cnc(NCc3c(F)ccc4c3CCO4)n3cnc(C#N)c23)n(C)n1 [Example 5, 8-(1,3-Dimethyl-1H-pyrazol-5-yl)-5-(((5-fluoro-2,3-dihydrobenzofuran-4-yl)methyl)amino)imidazo[1,5-c]pyrimidine-1-carbonitrile] | 3.2 | 3.5 | 8.9 |
| Cc1cn(-c2cnc(NCc3c(F)ccc4c3CCO4)n3cnc(C#N)c23)cn1 [Example 6, 5-(((5-Fluoro-2,3-dihydrobenzofuran-4-yl)methyl)amino)-8-(4-methyl-1H-imidazol-1-yl)imidazo[1,5-c]pyrimidine-1-carbonitrile] | 3.1 | 4.2 | 12.5 |
| CCOC(=O)c1ncn2c(NCc3cc(OC)c(F)cc3F)ncc(-c3ccc(S(C)(=O)=O)cc3)c12 [Example 7, Ethyl 5-((2,4-difluoro-5-methoxybenzyl)amino)-8-(4-(methylsulfonyl)phenyl)imidazo[1,5-c]pyrimidine-1-carboxylate] | 236 | 16.8 | 16.8 |
| CS(=O)(=O)c1ncn2c(NCc3c(F)ccc4c3CCO4)ncc(-c3cccnc3C(F)F)c12 [Example 13, 8-(2-(Difluoromethyl)pyridin-3-yl)-N-((5-fluoro-2,3-dihydrobenzofuran-4-yl)methyl)-1-(methylsulfonyl)imidazo[1,5-c]pyrimidin-5-amine] | 2.3 | 3.7 | 7.7 |
| CN(C)Cc1ccc(-c2cnc(NCc3c(F)ccc4c3CCO4)n3cncc23)cc1 [Example 17, 8-(4-((dimethylamino)methyl)phenyl)-N-((5-fluoro-2,3-dihydrobenzofuran-4-yl)methyl)imidazo[1,5-c]pyrimidin-5-amine] | 32.1 | 12.6 | 25.7 |
| CN(C)S(=O)(=O)c1ccc(-c2cnc(NCc3c(F)ccc4c3CCO4)n3cncc23)cc1 [Example 18, 4-(5-(((5-fluoro-2,3-dihydrobenzofuran-4-yl)methyl)amino)imidazo[1,5-c]pyrimidin-8-yl)-N,N-dimethylbenzenesulfonamide] | 46 | 10.1 | 15.1 |
| CS(=O)(=O)c1ccc(-c2cnc(NCc3c(F)ccc4c3CCO4)n3cncc23)cc1 [Example 19, N-((5-fluoro-2,3-dihydrobenzofuran-4-yl)methyl)-8-(4-(methylsulfonyl)phenyl)imidazo[1,5-c]pyrimidin-5-amine] | 60.1 | 8.5 | 10.4 |
| COc1cccc(F)c1CNc1ncc(-c2ccc(CN(C)C)cc2)c2cncn12 [Example 68, 8-(4-((dimethylamino)methyl)phenyl)-N-(2-fluoro-6-methoxybenzyl)imidazo[1,5-c]pyrimidin-5-amine] |  | 201 | 246 |
| CCN1CCN(c2ccc(-c3cnc(NCc4c(F)ccc5c4CCO5)n4cnc(C#N)c34)cn2)CC1 [Example 81, 8-(6-(4-ethylpiperazin-1-yl)pyridin-3-yl)-5-(((5-fluoro-2,3-dihydrobenzofuran-4-yl)methyl)amino)imidazo[1,5-c]pyrimidine-1-carbonitrile] | 14.8 |  | 35.1 |
| Cc1ncccc1-c1cnc(NCc2c(F)ccc3c2CCO3)n2cnc(C(=O)NC3COC3)c12 [Example 106, 5-(((5-fluoro-2,3-dihydrobenzofuran-4-yl)methyl)amino)-8-(2-methylpyridin-3-yl)-N-(oxetan-3-yl)imidazo[1,5-c]pyrimidine-1-carboxamide] | 10.9 |  | 16.5 |
| CS(=O)(=O)c1ccc(-c2cnc(NCc3c(F)ccc4c3CCO4)n3cnc(-c4ccccc4)c23)cc1 [Example 110, N-((5-fluoro-2,3-dihydrobenzofuran-4-yl)methyl)-8-(4-(methylsulfonyl)phenyl)-1-phenylimidazo[1,5-c]pyrimidin-5-amine] | 72.2 |  | 9.4 |
